Consider one compound from US20230192701A1, “BICYCLIC KINASE INHIBITORS AND USES THEREOF” (iOmx Therapeutics AG, priority 2020, published 2023).

In general, IC50 refers to the point on the concentration scale where inhibition reaches its midpoint. What is called half-life is how long it takes for the measured level to halve. Lower therefore signals rapid decline. Broadly, the efflux ratio is a quotient of directional permeabilities that is used to spot active efflux. Usually kinetic solubility stands for the concentration staying in solution when a stock, usually in DMSO, is diluted into the medium.

Converted amounts (≈) assume the structure as drawn.

Series [1] deals with SIK3 (Homo sapiens, UniProt Q9Y2K2). Description: radiometric protein kinase assay (33PanQinase Activity Assay), SIK3. It counts as biochemical. To be noted: ATP 1.0 μM, substrate RBER-CHKtide.
Series [2] is described as follows: Mouse liver microsomal stability. It counts as in vitro ADME. To be noted: pH 7.4; mouse liver microsomes, NADPH, 37°C. The method, then: Briefly, human and liver microsomal stability was determined by pre-incubation of 2.5 uL compound and 75 uL of the respective liver microsomes in potassium phosphate buffer (pH 7.4) at 37° C. After adding of NADPH as cofactor and further incubation at 37° C. for 60 min, acetonitrile containing internal standard was added, and the sample was vortexed for 5 min at 1200 rpm and then centrifuged 10 min at 4000 rpm.
(§1) LC-MS/MS was performed for all assays using a C18 column (50*4.6 mm, 5 um) for the CaCo2 assay, or a C18 column (50*4.6 mm, 4 um) for the other assays. The mobile phases used were 10 mM Ammonium Acetate with 0.1% Formic acid (aqueous) and 100% Acetonitrile (organic).
Background: Liver microsomes are a subcellular fraction often used to study metabolism.

Series [3] in a line: CaCo2 permeability and efflux assay. Format: in vitro ADME. The conditions noted are these: human, Caco-2; CaCo2, mean efflux ratio. The protocol:
(§2) To determine apparent permeability of the compounds an assay using a Caco-2 cells monolayer (cultured for 21d) in a 24-well format (poly carbonate high pore density plate with 0.4 μm pore size and a 0.7 cm2 active membrane area; Millipore) was performed as followed. 800 uL of DMEM was added to the basal compartment of the 24 well-plate and 60000 CaCo2 cells/well were seeded in the apical wells and incubated in a CO2 incubator at 37° C. for proliferation of cells. Apical to Basal permeability was determined by adding 400 uL of test compound to the apical well and 800 uL of HBSS buffer with 2% BSA to the basal well. 25 uL of basal sample was collected after 120 min and processed as stated below. Basal to Apical permeability was determined by adding 800 uL of test compound to basal well and 400 uL of HBSS buffer with 2% BSA to apical well. 25 uL of apical sample was collected after 120 min and processed as stated below. The samples were processed by diluting the donor samples 1:1 with HBSS containing 2% BSA and the receiver samples 1:1 with HBSS buffer. Samples were then precipitated with 200 uL of acetonitrile containing internal standard, vortexed for 5 min at 1000 rpm, and centrifuged at 4000 rpm for 20 min. 150 uL of supernatant was diluted with 150 uL of water and submitted for LC-MS/MS analysis, and Bi-directional (A-B and B-A) apparent permeability (Papp) was calculated.
as §1
A general note: Caco-2 monolayers are a common model of the intestinal barrier.

Series [4] deals with Caco-2 cells monolayer. The series can be described thus: CaCo2 permeability and efflux assay. It counts as in vitro ADME. To be noted: CaCo2, apical to basal, 120 min. The method, then:
as §2, §1

The target of series [5] is SIK2 (Homo sapiens, UniProt Q9H0K1). The series can be described thus: radiometric protein kinase assay (33PanQinase Activity Assay), SIK2. It counts as biochemical. The conditions noted are these: ATP 1.0 μM, substrate RBER-CHKtide.
In series [6] the test system is 335 wild-type protein kinases. Description: single-point inhibition assays, residual activity (ProQinase Kinase Profiler). Format: biochemical. To be noted: single-point 0.1 uM and 1 uM, 335 kinases. The method, then:
Several compounds of Formula (I) described herein were also tested in single-point (0.1 uM and 1 uM) inhibition assays over a diverse set of 335 wild-type protein (ProQinase “Kinase Profiler”; ProQinase, Freiburg, Germany), in which the residual activity of each kinase was determined. […] Secondly, the residual activity of each kinase was compared to other compounds tested (in particular, against the prior art compounds PY1) by use of scatter plots.

Series [7] is described as follows: Human hepatocyte stability. Format: in vitro ADME. The conditions noted are these: human hepatocytes, 37°C. The protocol:
Determination of human and mice hepatocyte stability was conducted as follows. 200 uL of the respective hepatocyte cell suspension (2×10e6/ml) was preincubated at 37° C. for 10 min. Then, 200 uL of a 2 uM working stock of the test compound was added to the hepatocyte cell suspension, and the mixture was further incubated at 37° C. and 500 rpm. The reaction was stopped at 30, 60 and 120 min by precipitating 50 uL of the incubation mixture with 200 uL of acetonitrile. Samples were vortexed for 5 min at 1200 rpm and centrifuged at 4000 rpm for 10 min. Intrinsic clearance and half-life were analysed using LC-MS/MS.
as §1

A short description of series [8]: Kinetic solubility assay. Format: physicochemical. To be noted: aqueous buffer, kinetic from dmso stock; PBS buffer pH 7.4, 1.0% DMSO, 24 h at RT. The protocol: The Kinetic solubility assay was conducted as follows. 4 uL compound of the 50 mM DMSO stock was added to deep well plate containing 396 uL PBS buffer (pH 7.4). The DMSO content in the sample was 1.0%, and the compound concentration 500 μM. The sample plate was vortexed at 800 rpm for 24 h at RT on a thermomixer. At the end of the incubation period, the sample plate was centrifuged at 4000 rpm for 10 mins. 3 uL of supernatant was transferred to well containing 297 uL of ISTD in Acetonitrile water:50:50, v/v and analysed in LC-MS/MS against a calibration curve (CC).

A short description of series [9]: Murine plasma protein binding (RED method). Format: in vitro ADME. To be noted: mouse. The protocol: (§3) Human and mice protein plasma binding was determined using the Plasma Protein Binding by RED Method. Briefly, 200 uL of the respective plasma containing the test compound (10 uM) was spiked into the donor well (RED Chamber) of the insert. 350 uL of PBS was spiked into receiver well (white chamber). The plate was incubated at 37° C. in a thermomixer at 400 rpm for 5 hours. The samples were matrix equilibrated with opposite matrix (25 uL blank buffet/Plasma). Matrix matched samples were precipitated with 200 uL of Acetonitrile containing Internal standard. Samples were vortexed at 1000 rpm for 5 min and centrifuged at 4000 rpm for 10 min. The supernatant was diluted 2 folds with water and % bound and unbound protein and % recovery at 5 h was determined by LC-MS/MS.
as §1

A short description of series [10]: Human plasma-protein binding (RED method). Format: in vitro ADME. The method, then: as §3, §1

Sequence of SIK2 (Q9H0K1 whole entry): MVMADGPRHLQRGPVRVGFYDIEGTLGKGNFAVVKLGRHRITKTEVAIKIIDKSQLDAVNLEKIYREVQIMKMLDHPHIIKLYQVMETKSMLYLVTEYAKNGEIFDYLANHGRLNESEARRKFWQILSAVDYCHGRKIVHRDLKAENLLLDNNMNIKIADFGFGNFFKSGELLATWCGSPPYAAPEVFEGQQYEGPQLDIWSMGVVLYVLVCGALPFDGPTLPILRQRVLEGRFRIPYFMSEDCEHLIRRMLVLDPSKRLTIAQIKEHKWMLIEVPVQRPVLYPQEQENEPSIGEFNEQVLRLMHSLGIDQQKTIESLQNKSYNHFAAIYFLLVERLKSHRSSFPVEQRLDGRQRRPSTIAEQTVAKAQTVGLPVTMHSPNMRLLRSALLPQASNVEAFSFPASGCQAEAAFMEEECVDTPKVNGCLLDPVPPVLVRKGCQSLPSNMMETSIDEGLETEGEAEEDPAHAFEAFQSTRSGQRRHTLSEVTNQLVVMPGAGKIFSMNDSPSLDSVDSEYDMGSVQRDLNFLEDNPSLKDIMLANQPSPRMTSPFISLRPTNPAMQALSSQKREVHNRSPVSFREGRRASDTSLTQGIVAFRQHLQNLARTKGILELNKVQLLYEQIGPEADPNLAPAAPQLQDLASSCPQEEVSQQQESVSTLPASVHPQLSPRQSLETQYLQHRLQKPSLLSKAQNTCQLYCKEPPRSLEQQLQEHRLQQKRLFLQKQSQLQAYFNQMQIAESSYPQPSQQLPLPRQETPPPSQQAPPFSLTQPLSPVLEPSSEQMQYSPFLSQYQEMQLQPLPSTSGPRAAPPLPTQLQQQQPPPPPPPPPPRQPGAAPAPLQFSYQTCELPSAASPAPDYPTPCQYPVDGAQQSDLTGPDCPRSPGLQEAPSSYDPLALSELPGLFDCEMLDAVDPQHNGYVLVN
Sequence of SIK3 (Q9Y2K2 whole entry): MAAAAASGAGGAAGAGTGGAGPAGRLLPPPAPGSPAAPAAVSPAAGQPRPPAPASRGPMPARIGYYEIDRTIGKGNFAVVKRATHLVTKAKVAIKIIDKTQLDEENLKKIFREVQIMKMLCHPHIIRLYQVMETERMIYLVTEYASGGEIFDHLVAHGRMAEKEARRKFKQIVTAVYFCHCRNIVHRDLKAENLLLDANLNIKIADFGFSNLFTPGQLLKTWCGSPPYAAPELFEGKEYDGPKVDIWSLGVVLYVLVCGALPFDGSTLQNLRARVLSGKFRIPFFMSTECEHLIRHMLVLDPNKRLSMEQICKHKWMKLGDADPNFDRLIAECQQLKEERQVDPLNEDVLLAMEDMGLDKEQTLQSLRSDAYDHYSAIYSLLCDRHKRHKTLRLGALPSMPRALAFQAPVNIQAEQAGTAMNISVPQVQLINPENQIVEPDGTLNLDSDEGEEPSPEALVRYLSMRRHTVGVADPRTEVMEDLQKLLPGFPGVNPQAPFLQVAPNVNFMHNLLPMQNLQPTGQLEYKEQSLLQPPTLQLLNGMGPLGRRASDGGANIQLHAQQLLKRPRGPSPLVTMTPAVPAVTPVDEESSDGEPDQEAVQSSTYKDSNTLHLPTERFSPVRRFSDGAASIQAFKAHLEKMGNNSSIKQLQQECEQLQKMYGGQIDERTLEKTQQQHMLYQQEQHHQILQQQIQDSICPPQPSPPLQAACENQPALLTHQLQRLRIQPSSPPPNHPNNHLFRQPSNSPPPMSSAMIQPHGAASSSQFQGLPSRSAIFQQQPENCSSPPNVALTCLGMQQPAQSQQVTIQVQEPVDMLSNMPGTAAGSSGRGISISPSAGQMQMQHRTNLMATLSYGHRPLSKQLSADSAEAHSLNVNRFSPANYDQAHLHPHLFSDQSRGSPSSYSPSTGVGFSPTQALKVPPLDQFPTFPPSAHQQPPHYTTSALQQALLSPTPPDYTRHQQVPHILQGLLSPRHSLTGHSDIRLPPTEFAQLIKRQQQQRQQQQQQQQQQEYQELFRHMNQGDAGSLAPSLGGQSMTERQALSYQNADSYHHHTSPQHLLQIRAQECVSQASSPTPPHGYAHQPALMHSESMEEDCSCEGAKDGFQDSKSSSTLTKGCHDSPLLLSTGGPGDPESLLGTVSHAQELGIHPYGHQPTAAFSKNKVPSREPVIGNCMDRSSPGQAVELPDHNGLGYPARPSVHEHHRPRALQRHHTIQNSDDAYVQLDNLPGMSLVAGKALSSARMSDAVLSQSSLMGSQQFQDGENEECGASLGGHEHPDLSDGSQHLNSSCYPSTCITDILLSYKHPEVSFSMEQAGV

Regarding `COc1ccc(N2C(=O)N(c3c(C)csc3Cl)Cc3cnc(Nc4ccc(C5CCN(C)CC5)cc4OC)nc32)nc1` [AA1, 3-(2-chloro-4-methylthiophen-3-yl)-7-((2-methoxy-4-(1-methylpiperidin-4-yl)phenyl)amino)-l-(5-methoxypyridin-2-yl)-3,4-dihydropyrimido[4,5-d]pyrimidin-2(1H)-one], the IC50 in series [1] was 200 to 400 nM; in series [5] it was 100 to 200 nM. The compound also registered a half-life in [2] of 0.75 h. The efflux ratio at 120 min in series [3] was found to be 2.4. In addition, the “A > B(10 EE-06 cm/s)” value in [4] was 10.5 10 EE-06 cm/s. Also, in [6], the “overall kinase profile compared to prior art compound PY1” value was “most similar overall kinase profile to the prior art compound PY1”. Also, the “particular kinases with different inhibition than PY1” value in series [6] is “BLK, SIK3 and TEC”. This compound had a half-life at 1 uM in [7] of 11 h. In addition, the kinetic solubility at 24 h in [8] is 6.9 µM (≈ 4.18 µg/mL). For the same compound, the recovery at 5 h, 10 uM in series [9] was 40%; in series [10], 32%.
